The values that follow come from patent US10364267B2, “Deuterated bile acid derivatives as FXR/TGR5 agonists and methods of use thereof” (ENANTA PHARMACEUTICALS, INC., priority 2016, dated 2019).

Bounds are passed on as bounds.

This experiment concerns the target T1, human FXR (NR1H4) (Homo sapiens, UniProt Q96RI1).
T1 construct: host or cells: CHO (Chinese hamster ovary) reporter cells
T1 sequence (Q96RI1 1-486): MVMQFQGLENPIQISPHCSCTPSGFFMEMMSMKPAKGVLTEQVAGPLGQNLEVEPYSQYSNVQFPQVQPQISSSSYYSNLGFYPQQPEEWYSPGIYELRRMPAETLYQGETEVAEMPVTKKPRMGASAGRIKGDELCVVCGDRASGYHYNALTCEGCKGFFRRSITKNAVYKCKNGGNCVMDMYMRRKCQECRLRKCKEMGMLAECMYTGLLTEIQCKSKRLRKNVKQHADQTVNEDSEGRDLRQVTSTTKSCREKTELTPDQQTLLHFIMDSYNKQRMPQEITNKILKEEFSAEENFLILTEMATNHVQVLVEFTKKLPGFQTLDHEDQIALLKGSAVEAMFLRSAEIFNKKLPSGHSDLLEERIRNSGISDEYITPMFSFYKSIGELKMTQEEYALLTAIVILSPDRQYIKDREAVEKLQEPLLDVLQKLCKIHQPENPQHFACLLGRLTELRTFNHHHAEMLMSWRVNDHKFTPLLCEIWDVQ
Nature of the experiment: Human FXR (NR1H4) Assay (luciferase reporter, Indigo Bioscience kit). The following applies: for Efficacy (%): efficacy normalized to CDCA set as 100%, CHO reporter cells expressing human NR1H4. In kind it is cell-based. An excerpt:
Human FXR (NR1H4) Assay Determination of a ligand mediated Gal4 promoter driven transactivation to quantify ligand binding mediated activation of FXR. FXR Reporter Assay kit purchased from Indigo Bioscience (Catalogue number: IB00601) to determine the potency and efficacy of compound developed by Enanta that can induce FXR activation. The principle application of this reporter assay system is to quantify functional activity of human FXR. The assay utilizes non-human mammalian cells, CHO (Chinese hamster ovary) cells engineered to express human NR1H4 protein (referred to as FXR). Reporter cells also incorporate the cDNA encoding beetle luciferase which catalyzes the substrates and yields photon emission. Luminescence intensity of the reaction is quantified using a plate-reading luminometer, Envision. Reporter Cells include the luciferase reporter gene functionally linked to an FXR responsive promoter. Thus, quantifying changes in luciferase expression in the treated reporter cells provides a sensitive surrogate measure of the changes in FXR activity. […] The assay is according to the manufacturer's instructions. In brief, the assay was performed in white, 96 well plates using final volume of 100 ul containing cells with different doses of compounds. Retrieve Reporter Cells from −80° C. storage. Perform a rapid thaw of the frozen cells by transferring a 10 ml volume of 37° C. cell recovery medium into the tube of frozen cells. Recap the tube of Reporter Cells and immediately place it in a 37° C. water bath for 5-10 minutes. Retrieve the tube of Reporter Cell Suspension from the water bath. Sanitize the outside surface of the tube with a 70% alcohol swab, and then transfer it into the cell culture hood. Dispense 90 μl of cell suspension into each well of the 96-well Assay Plate. Transfer the plate into 37° C. incubator, allowing the cells adherent to the bottom of the well. Dilute compounds in Dilution Plate (DP), and administrate to cells at Assay Plate (AP). DMSO content of the samples was kept at 0.2%. Cells were incubated for additional 22 hours before luciferase activities were measured. Thirty minutes before intending to quantify FXR activity, remove Detection Substrate and Detection Buffer from the refrigerator and place them in a low-light area so that they may equilibrate to room temperature. Remove the plate's lid and discard all media contents by ejecting it into an appropriate waste container. Gently tap the inverted plate onto a clean absorbent paper towel to remove residual droplets. Cells will remain tightly adhered to well bottoms. Add 100 μl of luciferase detection reagent to each well of the assay plate. […] Set the instrument (Envision) to perform a single 5 second “plate shake” prior to reading the first assay well. Read time may be 0.5 second (500 mSec) per well.
A general note: A reporter such as luciferase makes a cellular process visible.

Take `[2H]C([C@@H]1[C@@H]2C[C@H](O)CC[C@]2(C)C2CC[C@@]3(C)C(CC[C@@H]3[C@H](C)CCNC(=O)NS(=O)(=O)c3ccc(C(C)(C)C)cc3)C2[C@]1([2H])O)C([2H])([2H])[2H]` (stereo partly shown) [Example 4]: the EC50 (usually the concentration that produces a half-maximal response) is less than 100 nM and the “Efficacy (%)” value is given as 197%.
`[2H]C([C@@H]1[C@@H]2C[C@H](O)CC[C@]2(C)C2CC[C@@]3(C)C(CC[C@@H]3[C@H](C)CCNC(=O)NS(=O)(=O)N(C)C)C2[C@]1([2H])O)C([2H])([2H])[2H]` (stereo partly shown) [Example 5]: the half-maximal effective concentration (EC50) was 100 to 1000 nM and the “Efficacy (%)” value is 352. %.
